Assay results from patent US8003595B2, “Amino acid sequences facilitating penetration of a substance of interest into cells and/or cell nuclei” (Cellectis, priority 2000, dated 2011).
Where two headings read alike, the source gives them in different places. Marks after values point to notes of the source that are not given here.

Legend:
[1] = ELISA fixation of biotinylated peptides on sensitized plates; assay type: binding; conditions: for EC50: Table 4, read-out: avidity: quantity of peptides necessary to obtain 50% fixation, Chondroitin C; for Kd: read-out: avidity (Kd), quantity of peptides necessary to obtain 50% fixation, Chondroitin C, Table 5
[2] = as above; assay type: binding; conditions: for EC50: Table 4, read-out: avidity: quantity of peptides necessary to obtain 50% fixation, Chondroitin A; for Kd: read-out: avidity (Kd), quantity of peptides necessary to obtain 50% fixation, Chondroitin A, Table 5
[3] = as above; assay type: binding; conditions: for EC50: ELISA plates sensitized with heparin, Table 4, read-out: avidity: quantity of peptides necessary to obtain 50% fixation, Heparin; for Kd: read-out: avidity (Kd), quantity of peptides necessary to obtain 50% fixation, Heparin
Method: (§1) The capacity of peptides SEQ ID NO: 1 to 21 to attach themselves to DNA and heparin is evaluated on ELISA plates sensitized with DNA or heparin. Dilutions of biotinylated peptides are deposited on the plates and their fixation is shown using streptavidin conjugated with peroxidase. […] The avidity of each of the peptides for DNA or heparin is evaluated by the quantity (×10^−6 M) of peptides necessary to obtain 50% fixation.

DNA = assay: as above; assay type: binding; conditions: ELISA plates sensitized with DNA; read-out: avidity: quantity of peptides necessary to obtain 50% fixation, DNA
Method: as §1

[4] = as above; assay type: binding; conditions: for EC50: Table 4, read-out: avidity: quantity of peptides necessary to obtain 50% fixation, Chondroitin B; for Kd: read-out: avidity (Kd), quantity of peptides necessary to obtain 50% fixation, Chondroitin B, Table 5
H1299 cells [5] = assay: Internalization of biotinylated peptide/S-PO complexes; assay type: cell-based, human
Method: A biotinylated/S-PO peptide or biotinylated/A-PO complex (A-PO for avidin-peroxidase) is prepared extemporaneously in two ways:
1) either in a peptide: S-PO or A-PO molar ratio of 4:1 (for example, 1.4 μg of peptide with a molecular weight of 3500 to 10 μg of S-PO; the weight of S-PO used varies depending on the peptides since their molecular weights are different).
2) or in a peptide: S-PO or A-PO molar ratio of 25:1 (for example 1.7 μg of peptide with a molecular weight of 3500 to 1 μg of S-PO).
The complexes are prepared by incubating the biotinylated peptide with S-PO or A-PO in PBS in a volume of 5 to 10 μl for 15 minutes at laboratory temperature. They are then diluted in 1 ml of complete culture medium, filtered on a 0.2 micron membrane and incubated with the cells for 4 hours. The cells are then washed three times with PBS.
To study the penetration of the complexes under a microscope, the cells are fixed as before for 15 minutes in ethanol at −20° C., they are washed with PBS, and the activity of the internalized peroxidase is shown by diaminobenzidine in the presence of H2O2. To measure the quantity of peptide/S-PO or A-PO complexes internalized, the cells are trypsinized, transferred into microtubes and counted. They are washed twice by centrifugation, then the residue is suspended in 200 μl of lysis buffer (Tris buffer, 0.1 M, pH8, 0.5% Nonidet). After 15 minutes, the peroxidase contained in the lysis buffer is dosed onto 96-well plates with ortho-dianisidine and H2O2 by comparison with a standard curve for S-PO. The reading is taken at 450 nm. The quantity contained in the different samples is expressed in picograms (pg) per 10^4 cells.
Table 7 below reports the results of evaluating the influence of SEQ ID NO: 1 on the penetration of peptides coupled to SEQ ID NO: 1 into H1299 cells, where
Concentration a: 25 peptides to one molecule of S-PO (1 μg),
Concentration b: 4 peptides to one molecule of S-PO (10 μg).

H1299 cells [6] = assay: Internalization of covalent peptide-peroxidase conjugates; assay type: cell-based, human; conditions: for quantity of peptide internalized: 2 hours
Method: To evaluate more directly the penetration of the peptides, avoiding the avidin-peroxidase bias, some of the peptides in sequences SEQ ID NO: 25 to 48 were conjugated covalently with cysteine in the C-terminal position of the peptide to peroxidase. The peptides were coupled with peroxidase in the following way:
One mg of peroxidase activated with maleimide (Sigma) in 100 μl of sodium phosphate buffer, NaCl 0.15 M, EDTA 5 mM, had 1 mg of peptide added to it. After 2 hours at laboratory temperature, β-mercaptoethanol is added to a final concentration of 1.5 mM for 15 minutes. The uncoupled peptide is eliminated by centrifugation on ultrafiltration membranes (cut-off threshold=30,000 Daltons, Sartorius), followed by three washings in sodium phosphate buffer 0.1 M, pH 7.4 containing 0.15 M NaCl.
The H1299 cells are incubated for 2 hours with the conjugates at increasing concentrations of peptide-peroxidase in the culture medium, then washed with PBS. The cells are lysed and the quantity of peptide internalized is evaluated by the dosage of peroxidase in the lysate of the cells with reference to a curve established with peptide-peroxidase.
The quantity of peptide internalized (pg/10^3 cells), depending on the concentrations of conjugates in the culture medium, is shown in Table 8 below.
It appears that the higher the concentration of peptide-peroxidase conjugate in the culture medium, the more the quantity internalized increases. To compare the penetration of the conjugates by cell type, the cells from different lines were incubated with 0.2 μg/ml of peptide-peroxidase conjugate for 2 hours, and the quantity of peroxidase dosed in the lysates. Table 9 and Table 9B below give the results expressed in pg/10^3 cells. The quantity of each peptide internalized in the different lines generally varies only from single to double.

cells = assay: Penetration of biotinylated peptides inside cells (microscopy, S-PO coloration); assay type: cell-based; conditions: biotinylated peptides 50 to 6 μg/ml, 1-18 hours, revealed with S-PO
Method: The cells are cultivated in the presence of the different peptides carrying, on the N-terminal side, biotin in decreasing concentrations (50 to 6 μg/ml) in the culture medium for variable times (1-18 hours).
At the end of the culture, the cells are washed three times with PBS (0.15 M NaCl buffered with 0.01 M potassium phosphate buffer pH 7.4) then fixed 15 minutes in ethanol at −20° C. The penetration of the peptide is evaluated after incubation for 30 minutes with streptavidin conjugated with peroxidase (abbreviated S-PO for streptavidin-peroxidase). Then, the S-PO is eliminated, and the cells are washed. […] With the other peptides, positive colorations, but of variable intensity, were noted.

[7] = Conc. a: 25 peptides to one molecule of S-PO (1 μg)
[8] = Conc. b: 4 peptides to one molecule of S-PO (10 μg)

| Substance | EC50 [1] [nM] | EC50 [2] [nM] | EC50 [3] [nM] | EC50 (DNA) [nM] | EC50 [4] [nM] | other results |
| --- | --- | --- | --- | --- | --- | --- |
| GRPRESGKKRKRKRLKP [compound 21] | 120 | 120 | 70 | 200 | 120 |  |
| KSRK [compound 18] | > 134000 | > 134000 | > 134 | > 134000 | > 134000 |  |
| KSRKKSRK [compound 19] | > 74000 | > 74000 | > 74000 | > 74000 | > 74000 |  |
| LRKRLLRD [compound 17] | > 150000 | > 150000 | > 150000 | > 150000 | > 150000 |  |
| LRRERQSRLRRERSQSR [SEQ ID NO: 39] |  |  |  |  |  | Kd [1]: 100 nM; Kd [2]: 100 nM; Kd ([3]; Table 5): 100 nM; Kd [4]: 100 nM |
| RGVRPRVTRMDVRHVRPRVTRMDV [compound 15] | 5000 | 200 | > 30000 | 3000 | 4000 |  |
| RHVRPRVTRMDVVKRGLKLRHVRPRVTRMDV [compound 16] | 2 | 12 | 24 | 19 | 9 |  |
| RKGFYKRKQCKP [SEQ ID NO: 20] |  |  |  |  |  | Kd [1]: 100 nM; S-PO internalized (H1299 cells [5]; peptide: S-PO complexes of 4:1, peptide concentration of 1 μg): 431 pg/10^4 cells; Kd [2]: 60 nM; Kd ([3]; Table 5): 70 nM; Kd [4]: 40 nM |
| RKGFYKRKQCKP [compound 20] | 100 | 60 | 70 | 90 | 40 |  |
| RKKRRRGDRKKRRRGD [SEQ ID NO: 28] |  |  |  |  |  | percentage of quantity of peroxidase internalized compared to quantity deposited (H1299 cells [6]; 0.01 μg/ml): (0.006)* %; percentage of quantity of peroxidase internalized compared to quantity deposited (H1299 cells [6]; 0.1 μg/ml): (1.6) %; percentage of quantity of peroxidase internalized compared to quantity deposited (H1299 cells [6]; 0.5 μg/ml): (7.6) %; percentage of quantity of peroxidase internalized compared to quantity deposited (H1299 cells [6]; 1 μg/ml): (8.8) %; quantity of peptide internalized (H1299 cells [6]; peptide-peroxidase 0.01 μg/ml): 0.006 pg/10^3 cells; quantity of peptide internalized (H1299 cells [6]; peptide-peroxidase 0.1 μg/ml): 1.7 pg/10^3 cells; quantity of peptide internalized (H1299 cells [6]; peptide-peroxidase 0.5 μg/ml): 37.9 pg/10^3 cells; quantity of peptide internalized (H1299 cells [6]; peptide-peroxidase 1 μg/ml): 8860 pg/10^3 cells; avidity (Kd), quantity of peptides necessary to obtain 50% fixation, Heparin ([3]; Table 5): lost its affinity for heparin; Kd ([3]; Table 5): 407 nM |
| RQKYNKRAMDY [compound 4] | 5000 | 5600 | 5000 | 4000 | 6200 |  |
| SEQ ID NO: 4: Peptide corresponding to the hypervariable area CD3 of the anti-DNA monoclonal murine antibody F4.1 (RQKYNKRAMDY; Mus musculus x Rattus norvegicus) |  |  |  |  |  | intracellular cytochemical coloration (cells): do not give any positive intracellular cytochemical coloration; S-PO internalized (H1299 cells [5]; [7]): 2 pg/10^4 cells; S-PO internalized (H1299 cells [5]; [8]): 280 pg/10^4 cells |
| SEQ ID NO: 5: Peptide containing SEQ ID NO: 1 and SEQ ID NO: 4 (VKRGLKLRQKYNKRAMDY; Homo sapiens - Mus musculus - Rattus norvegicus) |  |  |  |  |  | intracellular cytochemical coloration (cells): intense coloration; S-PO internalized (H1299 cells [5]; [7]): 100 pg/10^4 cells; S-PO internalized (H1299 cells [5]; [8]): 6250 pg/10^4 cells |
| SEQ ID NO: 11: SEQ ID NO: 1 and CDR3 of the human anti-DNA monoclonal antibody RT72 (VKRGLKLGYYDFWSGPGKN; listed as Homo sapiens) |  |  |  |  |  | intracellular cytochemical coloration (cells): do not give any positive intracellular cytochemical coloration |
| SEQ ID NO: 12: Peptide containing the NLS sequence of cells 3T3 and SEQ ID NO: 6 (NVKKPKLTYYSDTVKGRFTRQKYNKRA; Mus musculus x Rattus norvegicus) |  |  |  |  |  | intracellular cytochemical coloration (cells): do not give any positive intracellular cytochemical coloration |
| SEQ ID NO: 15: twice the CDR3 region peptide of anti-DNA human monoclonal antibody NE-1 (RGVRPRVTRMDVRHVRPRVTRMDV; listed as Homo sapiens) |  |  |  |  |  | S-PO internalized (H1299 cells [5]; [7]): 250 pg/10^4 cells; S-PO internalized (H1299 cells [5]; [8]): 6670 pg/10^4 cells |
| SEQ ID NO: 16: inclusion, in position 13-19, of SEQ ID NO: 1 in SEQ ID NO: 15 (RHVRPRVTRMDVVKRGLKLRHVRPRVTRMDV; listed as Homo sapiens) |  |  |  |  |  | S-PO internalized (H1299 cells [5]; [7]): 430 pg/10^4 cells; S-PO internalized (H1299 cells [5]; [8]): 5220 pg/10^4 cells |
| TYYSDTVKGRFTRQKYNKRA [compound 6] | 220 | 240 | 160 | 190 | 250 |  |
| VKRGLKL [compound 1] | > 100000 | > 100000 | > 100000 | > 100000 | > 100000 |  |
| VKRGLKLRQKYNKRAMDY [compound 5] | 110 | 130 | 110 | 110 | 110 |  |
| VKRGLKLTYYSDTVKGRFTRQYNKRA [compound 7] | 60 | 60 | 50 | 50 | 40 |  |
| VKRGLKLVKRGLKL [compound 2] | 550 | 550 | 760 | 2200 | 600 |  |
| VKRGLKLVKRGLKLVKRGLKL [compound 3] | 35 | 37 | 41 | 50 | 41 |  |
| VKRGLKLVRRSGRVVVPAAPRNRD [compound 9] | > 8000 | 17 | 3700 | 3700 | 500 |  |
| VRRSGRVVVPAAPRNRD [compound 8] | > 150000 | > 150000 | > 150000 | > 150000 | > 150000 |  |
